Laboratory results published in ChEMBL document CHEMBL1135855, “4-amidinobenzylamine-based inhibitors of urokinase” (Bioorg Med Chem Lett, 2002).

How the values were obtained:
[1] = molecular target: Coagulation factor X (Homo sapiens, UniProt P00742); experiment: In vitro inhibition of Coagulation factor Xa.
[2] = molecular target: Plasminogen (Homo sapiens, UniProt P00747); experiment: In vitro inhibition of Plasmin.
[3] = molecular target: Serine protease 1 (Homo sapiens, UniProt P07477); experiment: In vitro inhibition of trypsin.
Serine protease 1, sequence (P07477 whole entry): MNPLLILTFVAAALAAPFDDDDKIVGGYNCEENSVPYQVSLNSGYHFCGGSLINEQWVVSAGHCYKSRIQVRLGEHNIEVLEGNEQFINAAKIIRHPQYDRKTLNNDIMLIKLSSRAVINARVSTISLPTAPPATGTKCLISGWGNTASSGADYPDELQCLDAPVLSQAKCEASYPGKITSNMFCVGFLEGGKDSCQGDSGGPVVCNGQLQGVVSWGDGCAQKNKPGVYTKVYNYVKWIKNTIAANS

[4] = molecular target: Prothrombin (Homo sapiens, UniProt P00734); experiment: In vitro inhibition of thrombin.
[5] = molecular target: T1, Urokinase-type plasminogen activator (Homo sapiens, UniProt P00749); experiment: In vitro inhibition of plasminogen activator urokinase.
[6] = molecular target: T1, Urokinase-type plasminogen activator

Coagulation factor X, sequence (P00742 41-179 limits assumed): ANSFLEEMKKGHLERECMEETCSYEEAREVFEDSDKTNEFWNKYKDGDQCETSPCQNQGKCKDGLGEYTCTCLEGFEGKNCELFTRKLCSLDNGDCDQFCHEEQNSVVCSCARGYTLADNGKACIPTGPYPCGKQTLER
Coagulation factor X, sequence (P00742 235-488 limits assumed): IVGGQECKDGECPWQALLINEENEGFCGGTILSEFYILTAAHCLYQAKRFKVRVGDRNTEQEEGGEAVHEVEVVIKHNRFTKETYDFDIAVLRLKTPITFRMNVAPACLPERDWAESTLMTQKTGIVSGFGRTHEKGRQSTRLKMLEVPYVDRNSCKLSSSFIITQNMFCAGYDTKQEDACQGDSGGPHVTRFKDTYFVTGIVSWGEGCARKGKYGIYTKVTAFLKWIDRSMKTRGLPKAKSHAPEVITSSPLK
Plasminogen, sequence (P00747 97-580 limits assumed): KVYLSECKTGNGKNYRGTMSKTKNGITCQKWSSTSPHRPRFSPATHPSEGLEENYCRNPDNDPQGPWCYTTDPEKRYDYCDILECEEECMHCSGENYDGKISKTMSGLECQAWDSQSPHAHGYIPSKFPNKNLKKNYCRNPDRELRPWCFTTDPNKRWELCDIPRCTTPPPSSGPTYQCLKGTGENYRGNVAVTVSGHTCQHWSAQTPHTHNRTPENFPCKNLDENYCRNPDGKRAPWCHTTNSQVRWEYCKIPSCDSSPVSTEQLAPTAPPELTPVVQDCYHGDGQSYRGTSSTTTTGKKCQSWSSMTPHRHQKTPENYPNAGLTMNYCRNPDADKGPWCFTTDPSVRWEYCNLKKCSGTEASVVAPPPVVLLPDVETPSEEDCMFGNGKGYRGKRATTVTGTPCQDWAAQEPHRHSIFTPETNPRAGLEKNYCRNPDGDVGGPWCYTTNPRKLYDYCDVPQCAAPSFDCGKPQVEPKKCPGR
Plasminogen, sequence (P00747 581-810 limits assumed): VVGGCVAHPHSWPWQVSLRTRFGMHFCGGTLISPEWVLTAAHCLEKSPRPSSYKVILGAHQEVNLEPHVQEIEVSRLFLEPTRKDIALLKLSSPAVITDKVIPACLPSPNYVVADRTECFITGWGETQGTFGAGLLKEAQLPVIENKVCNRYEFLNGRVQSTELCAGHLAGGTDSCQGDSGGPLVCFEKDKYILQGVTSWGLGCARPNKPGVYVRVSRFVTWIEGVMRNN

| Compound | Ki [1] | Ki [2] | Ki [3] | Ki [4] | Ki [5] | Ki [6] |
| --- | --- | --- | --- | --- | --- | --- |
| CC(C)c1cc(S(=O)(=O)N[C@H](CO)C(=O)NCC(=O)NCc2ccc(C(=N)N)cc2)cc(C(C)C)c1C(C)C | 100 µM | 75 µM | 3.4 µM | 15 µM | 1.5 µM |  |
| N=C(N)c1ccc(CNC(=O)CNC(=O)[C@@H](CO)NS(=O)(=O)CC2CCCCC2)cc1 | 2 µM | 17 µM | 0.11 µM | 10 µM |  |  |
| N=C(N)c1ccc(CNC(=O)[C@H]2CCCN2C(=O)[C@@H](CO)NS(=O)(=O)Cc2ccccc2)cc1 | 2 µM | 0.15 µM | 0.0032 µM | 0.012 µM |  |  |
| COC(=O)OC[C@@H](NS(=O)(=O)Cc1ccccc1)C(=O)NCC(=O)NCc1ccc(C(=N)N)cc1 | 0.34 µM | 10.9 µM | 0.064 µM | 3 µM |  |  |
| C[C@H](NC(=O)[C@@H](CO)NS(=O)(=O)CCc1ccccc1)C(=O)N[C@H]1CCCN(C(=N)N)C1O (stereo partly drawn) |  |  |  |  |  | 3.1 µM |
| N=C(N)c1ccc(CNC(=O)CNC(=O)[C@@H](N)CCC(=O)O)cc1 | > 1000 µM | > 1000 µM | 5 µM | > 1000 µM | 22 µM |  |
| N=C(N)c1ccc(CNC(=O)CNC(=O)[C@@H](N)CO)cc1 | > 1000 µM | > 1000 µM | 7 µM | > 1000 µM |  |  |
| CC(C)COC(=O)OC[C@@H](NS(=O)(=O)Cc1ccccc1)C(=O)NCC(=O)NCc1ccc(C(=N)N)cc1 |  | 2.4 µM | 0.12 µM | 4 µM |  |  |
| CC(=O)N[C@H](CO)C(=O)NCC(=O)NCc1ccc(C(=N)N)cc1 | > 1000 µM | > 1000 µM | 14 µM | > 1000 µM |  |  |
| CC(C)(C)OC(=O)N[C@@H](CO)C(=O)NCC(=O)NCc1ccc(C(=N)N)cc1 | 110 µM | 210 µM | 3.4 µM | 69 µM |  |  |
| N=C(N)c1ccc(CNC(=O)CNC(=O)[C@@H](CO)NS(=O)(=O)/C=C/c2ccccc2)cc1 | 15 µM | 140 µM | 1.7 µM | 15 µM | 2.2 µM |  |
| N=C(N)c1ccc(CNC(=O)CNC(=O)[C@@H](CO)NS(=O)(=O)CCc2ccccc2)cc1 | 28 µM | 59 µM | 0.9 µM | 33 µM | 0.49 µM |  |
| N=C(N)c1ccc(CNC(=O)CNC(=O)[C@@H](CO)NC(=O)OCc2ccccc2)cc1 | 140 µM | 160 µM | 4.3 µM | 230 µM | 4 µM |  |
| CC(C)COC(=O)OC[C@@H](NS(=O)(=O)Cc1ccccc1)C(=O)N[C@@H](C)C(=O)NCc1ccc(C(=N)N)cc1 | 0.41 µM | 0.15 µM | 0.0048 µM | 0.05 µM | 0.043 µM |  |
| CC(C)(C)OC(=O)N[C@H](CO)C(=O)NCC(=O)NCc1ccc(C(=N)N)cc1 | 140 µM | > 1000 µM | 4.5 µM | 170 µM | 9 µM |  |
| CC(NS(=O)(=O)c1ccc2ccccc2c1)C(=O)NCc1ccc(C(=N)N)cc1 (single isomer, unassigned; (-)) |  |  |  |  | 9.6 µM |  |

Now from value to molecule, other results behind:

| Ki [1] | Ki [2] | Ki [3] | Ki [4] | Ki [5] | Compound | Ki [6] |
| --- | --- | --- | --- | --- | --- | --- |
| 10.6 µM | 43 µM | 0.65 µM | 16 µM |  | N=C(N)c1ccc(CNC(=O)CNS(=O)(=O)c2ccc3ccccc3c2)cc1 |  |
| > 1000 µM | > 1000 µM | > 1000 µM | > 1000 µM |  | N/C(=N\O)c1ccc(CNC(=O)CNC(=O)[C@@H](CO)NS(=O)(=O)Cc2ccccc2)cc1 |  |
| 2.1 µM | 0.54 µM | 0.0033 µM | 0.11 µM |  | C[C@H](NC(=O)[C@@H](CO)NS(=O)(=O)Cc1ccccc1)C(=O)NCc1ccc(C(=N)N)cc1 |  |
| 3 µM |  | 0.15 µM | 13 µM |  | N=C(N)c1ccc(CNC(=O)CNC(=O)[C@@H](CO)NS(=O)(=O)Cc2ccccc2)cc1 |  |
| > 1000 µM | > 1000 µM | 2.8 µM | > 1000 µM | 82 µM | CC(C)(C)OC(=O)NC(CCC(=O)O)C(=O)NCC(=O)NCc1ccc(C(=N)N)cc1 (stereo not drawn) |  |
| > 1000 µM | > 1000 µM | 6.9 µM | 200 µM |  | N=C(N)c1ccc(CNC(=O)CNC(=O)[C@H](N)CO)cc1 |  |
| 28 µM | 32 µM | 1.8 µM | 11 µM | 1.2 µM | N=C(N)c1ccc(CNC(=O)CNC(=O)[C@@H](CO)NS(=O)(=O)c2ccc3ccccc3c2)cc1 |  |
